Measured values as given in ChEMBL document CHEMBL1201862, “PubChem BioAssay data set” (2004).
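Interpolation was linear, between the two tested concentrations surrounding the appropriate level; five concentrations were tested over 48 hours in 96-well plates. GI50 = concentration required for 50% inhibition of growth.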 The source made the active and inactive calls. No stated cut-off is given here; in the data, active = GI50 up to about 1.1 µM and inactive = higher.

Columns and labels:
Experiment in all cases: NCI anticancer screen, dose series, 48 h
786-0 = tested on: 786-0
A498 = tested on: A498
EKVX = tested on: EKVX
HCT-15 = tested on: HCT-15
HOP-92 = tested on: HOP-92
HT-29 = tested on: HT-29
Hs-578T = tested on: Hs-578T
K562 = tested on: K562
KM12 = tested on: KM12
MCF7 = tested on: MCF7
MDA-MB-231 = tested on: MDA-MB-231
MOLT-4 = tested on: MOLT-4
NCI-H226 = tested on: NCI-H226
NCI-H23 = tested on: NCI-H23
NCI-H522 = tested on: NCI-H522
OVCAR-8 = tested on: OVCAR-8
SK-OV-3 = tested on: SK-OV-3
SNB-19 = tested on: SNB-19
U-251 = tested on: U-251
UO-31 = tested on: UO-31

SMILES	GI50 (786-0)	GI50 (A498)	GI50 (EKVX)	GI50 (HCT-15) [µM]	GI50 (HOP-92)	GI50 (HT-29)	GI50 (Hs-578T)	GI50 (K562)	GI50 (KM12)	GI50 (MCF7)	GI50 (MDA-MB-231)	GI50 (MOLT-4)	GI50 (NCI-H226)	GI50 (NCI-H23)	GI50 (NCI-H522)	GI50 (OVCAR-8)	GI50 (SK-OV-3)	GI50 (SNB-19)	GI50 (U-251)	GI50 (UO-31)
Clc1ccc(-c2nn3c(COc4ccc(OCc5nnc6sc(-c7ccc(Cl)cc7)nn56)c(Cl)c4)nnc3s2)cc1	13.7 µM (inactive)	32.7 µM (inactive)	27 µM (inactive)	28	17.5 µM (inactive)	17.5 µM (inactive)	30.3 µM (inactive)	25.1 µM (inactive)	29.4 µM (inactive)	35.7 µM (inactive)	32.2 µM (inactive)	20.5 µM (inactive)	74.5 µM (inactive)	21.1 µM (inactive)	15.6 µM (inactive)	22 µM (inactive)	27.3 µM (inactive)	14.6 µM (inactive)	21.8 µM (inactive)	17.3 µM (inactive)
C[Si](C)(c1ccccc1)[C@H]1CCCC=C1CCNC1c2ccccc2CCc2ccccc21	> 100 µM (inactive)	69.2 µM (inactive)	29.4 µM (inactive)	51.2	23.7 µM (inactive)	28.7 µM (inactive)	> 100 µM (inactive)	52.1 µM (inactive)	77.3 µM (inactive)	53 µM (inactive)	89.7 µM (inactive)	30 µM (inactive)	> 100 µM (inactive)	61.5 µM (inactive)	50.8 µM (inactive)	> 100 µM (inactive)	> 100 µM (inactive)	> 100 µM (inactive)	> 100 µM (inactive)	49.5 µM (inactive)
Nc1onc2c1Cc1c(noc1N)-c1ccccc1-2	79.3 µM (inactive)	26.7 µM (inactive)	16.3 µM (inactive)	43.8	37.2 µM (inactive)	80.4 µM (inactive)	26.9 µM (inactive)	41.3 µM (inactive)	49.8 µM (inactive)	49.7 µM (inactive)	35.1 µM (inactive)	74.8 µM (inactive)	> 100 µM (inactive)	53.6 µM (inactive)	27.4 µM (inactive)	59.6 µM (inactive)	45.1 µM (inactive)	> 100 µM (inactive)	57.5 µM (inactive)	53.6 µM (inactive)
Cc1nc(O)nc2nc3ccc(Cl)cc3c(NC(C)(CO)CO)c12	> 57.4 µM (inactive)	> 100 µM (inactive)	24.9 µM (inactive)	88.3	74.1 µM (inactive)	> 100 µM (inactive)	46.9 µM (inactive)	> 100 µM (inactive)	> 100 µM (inactive)	> 68.4 µM (inactive)	31.6 µM (inactive)	> 40.8 µM (inactive)	> 84.5 µM (inactive)	63.5 µM (inactive)	24.2 µM (inactive)	72.3 µM (inactive)	36.9 µM (inactive)	45.2 µM (inactive)	36.8 µM (inactive)	4.49 µM (inactive)
c1c2c(cc3c1OCO3)-c1cc3ccc4c(c3c[n+]1CC2)OCO4 [COPTISINE CHLORIDE]	4.2 µM (inactive)	4.73 µM (inactive)	7.71 µM (inactive)	0.638	5.57 µM (inactive)	5.65 µM (inactive)	1.38 µM (inactive)	0.486 µM (active)	0.925 µM (active)	1.24 µM (inactive)	1.13 µM (inactive)	1.29 µM (inactive)	1.92 µM (inactive)	0.815 µM (active)	0.311 µM (active)	1.16 µM (inactive)	3.3 µM (inactive)	1.22 µM (inactive)	0.935 µM (active)	0.857 µM (active)
COc1ncc(C#CC(=O)c2ccccc2OC)c(OC)n1	1.86 µM (inactive)	18.4 µM (inactive)	3.25 µM (inactive)	0.621	2.32 µM (inactive)	1.57 µM (inactive)	9.98 µM (inactive)	0.39 µM (active)	5.7 µM (inactive)	0.736 µM (active)	0.92 µM (active)	0.386 µM (active)	1.42 µM (inactive)	2.73 µM (inactive)	0.738 µM (active)	2.06 µM (inactive)	25.6 µM (inactive)	15 µM (inactive)	3.89 µM (inactive)	1.55 µM (inactive)
COc1ccc(N2C(=O)C3c4[nH]c5ccc(OC)cc5c4C4CCC(c5ccccc5)CC4C3C2=O)cc1 (stereo not given)	2.12 µM (inactive)	14.2 µM (inactive)	9.08 µM (inactive)	31.3	16.7 µM (inactive)	4.04 µM (inactive)	1.6 µM (inactive)	7.67 µM (inactive)	14.2 µM (inactive)	19.6 µM (inactive)	7.05 µM (inactive)	4.32 µM (inactive)	28.7 µM (inactive)	17.5 µM (inactive)	7.89 µM (inactive)	7.48 µM (inactive)	12.2 µM (inactive)	11.9 µM (inactive)	8.99 µM (inactive)	29.6 µM (inactive)
CC(C)C(OC(=O)c1cc(NC(=S)c2ccccc2)ccc1Cl)C(C)C	16.7 µM (inactive)	21.1 µM (inactive)	12.9 µM (inactive)	9.27	8.39 µM (inactive)	9.31 µM (inactive)	21.1 µM (inactive)	25.7 µM (inactive)	5.69 µM (inactive)	17.3 µM (inactive)	20.2 µM (inactive)	10.1 µM (inactive)	16 µM (inactive)	6.5 µM (inactive)	8.51 µM (inactive)	22.9 µM (inactive)	32.4 µM (inactive)	38.4 µM (inactive)	19.1 µM (inactive)	11.4 µM (inactive)
COCC(=O)OC1CCn2c1nc1c2C(=O)C(C)=C(NC(C)=O)C1=O (stereo not given)	6.73 µM (inactive)	27.9 µM (inactive)	7.6 µM (inactive)	14.4	1.98 µM (inactive)	9.93 µM (inactive)	4.06 µM (inactive)	2.79 µM (inactive)	15.7 µM (inactive)	1.84 µM (inactive)	1.24 µM (inactive)	1.14 µM (inactive)	11.1 µM (inactive)	7.85 µM (inactive)	4.57 µM (inactive)	3.48 µM (inactive)	15.4 µM (inactive)	19.6 µM (inactive)	6.05 µM (inactive)	12.6 µM (inactive)
COc1ccc2c(c1)-c1nc(=S)n(CCN(C)C)c3ccc([N+](=O)[O-])c(c13)N2	0.462 µM (active)	8.13 µM (inactive)	1.97 µM (inactive)	0.731	6.61 µM (inactive)	0.498 µM (active)	1.37 µM (inactive)	0.389 µM (active)	0.971 µM (active)	0.861 µM (active)	1.23 µM (inactive)	0.15 µM (active)	0.973 µM (active)	1.16 µM (inactive)	0.533 µM (active)	0.484 µM (active)	0.57 µM (active)	0.828 µM (active)	1.08 µM (active)	0.794 µM (active)
CC(C)(C(=O)N(C(=O)N1CCN(c2ccccc2)CC1)S(=O)(=O)c1ccccc1)c1ccc(Cl)cc1	55.2 µM (inactive)	18.6 µM (inactive)	13.5 µM (inactive)	7.94	5.43 µM (inactive)	21.4 µM (inactive)	39.1 µM (inactive)	5.68 µM (inactive)	19.3 µM (inactive)	4.33 µM (inactive)	31.7 µM (inactive)	3.33 µM (inactive)	52.4 µM (inactive)	16.3 µM (inactive)	4.32 µM (inactive)	16.6 µM (inactive)	24 µM (inactive)	20.5 µM (inactive)	6.32 µM (inactive)	15.3 µM (inactive)
CC(=O)OC1CC(O)CC2=CCC3C4CCC(C(C)(O)C(O)CC5COC(=O)C5C)C4(C)CCC3C21C (stereo not given)	> 25 µM (inactive)	> 25 µM (inactive)	8.89 µM (inactive)	> 25	> 25 µM (inactive)	> 25 µM (inactive)	10.3 µM (inactive)	18.4 µM (inactive)	> 25 µM (inactive)	> 25 µM (inactive)	13 µM (inactive)	> 25 µM (inactive)	12.1 µM (inactive)	> 25 µM (inactive)	12.8 µM (inactive)	> 25 µM (inactive)	> 25 µM (inactive)	> 25 µM (inactive)	> 25 µM (inactive)	8.59 µM (inactive)
CSCCC(NC(=O)Cc1ccc(C(=O)c2ccccc2)cc1)C(=O)O (stereo not given)	> 100 µM (inactive)	> 100 µM (inactive)	> 100 µM (inactive)	> 100	> 100 µM (inactive)	> 100 µM (inactive)	> 100 µM (inactive)	> 100 µM (inactive)	> 100 µM (inactive)	> 100 µM (inactive)	> 100 µM (inactive)	> 100 µM (inactive)	> 100 µM (inactive)	> 100 µM (inactive)	> 100 µM (inactive)	> 100 µM (inactive)	> 100 µM (inactive)	> 100 µM (inactive)	> 100 µM (inactive)	> 100 µM (inactive)
O=C(Nc1noc(-c2ccccc2)n1)c1ccccc1CNc1noc(-c2ccccc2)n1	> 100 µM (inactive)	> 100 µM (inactive)	76.7 µM (inactive)	> 100	62.8 µM (inactive)	> 100 µM (inactive)	> 100 µM (inactive)	> 100 µM (inactive)	> 100 µM (inactive)	> 100 µM (inactive)	> 100 µM (inactive)	> 100 µM (inactive)	> 100 µM (inactive)	> 100 µM (inactive)	> 100 µM (inactive)	> 100 µM (inactive)	> 100 µM (inactive)	> 100 µM (inactive)	> 100 µM (inactive)	> 100 µM (inactive)
